Assay results as given in patent publication US6528494B2 (priority 1996, dated 2003).
Counter-ions that a name gives are not always drawn.

Tests used:
Type in all cases: cell-based
adenosine 3 receptor = target: T1, adenosine 3 receptor (Homo sapiens, UniProt P0DMS8); assay: Agonist activity against adenosine 3 receptor (CHO cells, forskolin-enhanced cAMP/SPAP reporter); details: CHO cells transfected with human receptor; forskolin-enhanced cAMP via SPAP; mean of all the versions tested
T1 sequence (P0DMS8 1-318): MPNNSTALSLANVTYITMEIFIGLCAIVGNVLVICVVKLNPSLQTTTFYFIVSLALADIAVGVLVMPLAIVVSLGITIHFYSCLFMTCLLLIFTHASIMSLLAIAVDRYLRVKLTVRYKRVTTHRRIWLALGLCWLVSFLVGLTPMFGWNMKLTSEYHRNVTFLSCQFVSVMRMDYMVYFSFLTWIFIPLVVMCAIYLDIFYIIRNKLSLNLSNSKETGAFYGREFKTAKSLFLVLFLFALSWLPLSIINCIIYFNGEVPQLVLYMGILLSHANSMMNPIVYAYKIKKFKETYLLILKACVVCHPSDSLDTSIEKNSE
Description: (§1) (1) Agonist activity against adenosine 2a, adenosine 1 and adenosine 3 receptor subtypes.
(§2) The effect of test compounds was determined by their effects on basal levels of cAMP (A2a) or on forskolin-enhanced cAMP (A1 and A3) as reflected by changes in levels of SPAP.

adenosine 2a receptor = adenosine 2a receptor (Homo sapiens, UniProt P29274); assay: Agonist activity against adenosine 2a receptor (CHO cells, cAMP/SPAP reporter); details: CHO cells transfected with human receptor; basal cAMP via SPAP; mean of all the versions tested
Description: as §1, §2

adenosine 1 receptor = target: T2, adenosine 1 receptor (Homo sapiens, UniProt P30542); assay: Agonist activity against adenosine 1 receptor (CHO cells, forskolin-enhanced cAMP/SPAP reporter); details: CHO cells transfected with human receptor; forskolin-enhanced cAMP via SPAP; mean of all the versions tested
T2 sequence (P30542 1-326): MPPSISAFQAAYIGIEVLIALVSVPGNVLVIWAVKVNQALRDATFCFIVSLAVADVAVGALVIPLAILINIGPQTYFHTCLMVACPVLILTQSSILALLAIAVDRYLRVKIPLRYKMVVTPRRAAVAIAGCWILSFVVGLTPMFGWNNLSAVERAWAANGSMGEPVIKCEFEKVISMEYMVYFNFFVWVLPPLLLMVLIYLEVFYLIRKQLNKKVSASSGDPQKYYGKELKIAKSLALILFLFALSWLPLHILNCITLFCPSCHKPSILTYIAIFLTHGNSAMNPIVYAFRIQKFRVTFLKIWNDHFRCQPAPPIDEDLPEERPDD
Description: as §1, §2

Sequence of adenosine 2a receptor (P29274 whole entry): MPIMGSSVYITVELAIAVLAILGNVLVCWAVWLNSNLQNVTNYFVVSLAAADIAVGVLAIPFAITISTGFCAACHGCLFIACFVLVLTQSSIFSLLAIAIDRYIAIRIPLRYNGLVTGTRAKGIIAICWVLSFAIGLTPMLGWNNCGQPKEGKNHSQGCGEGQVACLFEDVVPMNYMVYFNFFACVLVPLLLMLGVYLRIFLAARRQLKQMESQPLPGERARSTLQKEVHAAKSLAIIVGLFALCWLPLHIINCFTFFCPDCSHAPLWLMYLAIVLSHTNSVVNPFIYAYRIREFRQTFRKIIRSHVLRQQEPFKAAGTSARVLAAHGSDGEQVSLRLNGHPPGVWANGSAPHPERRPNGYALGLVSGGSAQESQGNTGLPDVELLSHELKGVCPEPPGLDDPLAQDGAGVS

Structure (SMILES) | A3 EC50 as a ratio of that of NECA (adenosine 3 receptor) | A2a EC50 as a ratio of that of NECA (adenosine 2a receptor) | A1 EC50 as a ratio of that of NECA (adenosine 1 receptor)
CCn1nnc([C@H]2O[C@@H](n3cnc4c(NCC(c5ccccc5)c5ccccc5)nc(N[C@H]5CC[C@H](N)CC5)nc43)[C@H](O)[C@@H]2O)n1 (relative stereo) [Example 1, rel-(2R,3R,4S,5R)-2-[2-(trans-4-Amino-cyclohexylamino)-6-(2,2-diphenylethylamino)-purin-9-yl]-5-(2-ethyl-2H-tetrazol-5-yl)-tetrahydro-furan-3,4-diol] | >549 | 0.53 | 89.3
CCn1nnc([C@H]2O[C@@H](n3cnc4c(NCC(c5ccccc5)c5ccccc5)nc(NC5CCNC5)nc43)[C@H](O)[C@@H]2O)n1.O=C(O)C(F)(F)F.O=C(O)C(F)(F)F.O=C(O)C(F)(F)F (stereo partly drawn) [Example 2, (2R,3R,4S,5R)-2-[6-(2,2-Diphenyl-ethylamino)-2-(pyrrolidin-3-ylamino)-purin-9-yl]-5-(2-ethyl-2H-tetrazol-5-yl)-tetrahydro-furan-3,4-diol tris(Trifluoroacetate)] | >216 | 0.92 | 123.6
CCn1nnc([C@H]2O[C@@H](n3cnc4c(NCc5cccc(I)c5)nc(NCCc5cn(C)cn5)nc43)[C@H](O)[C@@H]2O)n1 [Example 3, (2R,3S,4R,5R)-2-(2-Ethyl-2H-tetrazol-5-yl)-5-{6-(3-iodo-benzylamino)-2-[2-(1-methyl-1H-imidazol-4-yl)-ethylamino]-purin-9-yl}-tetrahydro-furan-3,4-diol] | >116 | 0.84 | 230.8
CCn1nnc([C@H]2O[C@@H](n3cnc4c(NCCc5ccccc5)nc(NCCc5cn(C)cn5)nc43)[C@H](O)[C@@H]2O)n1.Cl.Cl [Example 4, (2R,3S,4R,5R)-2-(2-Ethyl-2H-tetrazol-5-yl)-5-{2-[2-(1-methyl-1H-imidazol-4-yl)-ethylamino]-6-phenethylamino-purin-9-yl}-tetrahydro-furan-3,4-diol Dihydrochloride] | >244 | 0.149 | 205.4
CCn1nnc([C@H]2O[C@@H](n3cnc4c(NCc5ccccc5)nc(NCCc5cn(C)cn5)nc43)[C@H](O)[C@@H]2O)n1 [Example 5, (2R,3R,4S,5R)-2-{6-Benzylamino-2-[2-(1-methyl-1H-imidazol-4-yl)-ethylamino]-purin-9-yl}-5-(2-ethyl-2H-tetrazol-5-yl)-tetrahydro-furan-3,4-diol] | >181 | 0.76 | 700.4
CC(=O)O.CCC(CC)Nc1nc(NCCc2cn(C)cn2)nc2c1ncn2[C@@H]1O[C@H](c2nnn(CC)n2)[C@@H](O)[C@H]1O [Example 6, (2R,3R,4S,5R)-2-{6-(1-Ethyl-propylamino)-2-[2-(1-methyl-1H-imidazol-4-yl)-ethylamino]-purin-9-yl}-5-(2-ethyl-2H-tetrazol-5-yl)-tetrahydro-furan-3,4-diol Acetate] | >256 | 0.14 | 34.4
CCn1nnc(C2OC(n3cnc4c(NC5CCCC5)nc(NCCc5cn(C)cn5)nc43)C(O)C2O)n1 [Example 7, (2R,3R,4S,5R)-(2-{6-Cyclopentylamino-2-[2-(1-methyl-1H-imidazol-4-yl)-ethylamino]-purin-9-yl}-5-(2-ethyl-2H-tetrazol-5-yl)-tetrahydro-furan-3,4-diol Acetate] | >161 | 0.12 | 26.2
CCn1nnc(C2OC(n3cnc4c(NC(CO)Cc5ccccc5)nc(NCCc5cn(C)cn5)nc43)C(O)C2O)n1 [Example 8, (2R,3S,4R,5R)-2-(2-Ethyl-2H-tetrazol-5-yl)-5-{6-(1S-hydroxymethyl-2-phenyl-ethylamino)-2-[2-(1-methyl-1H-imidazol-4-yl)-ethylamino]-purin-9-yl}-tetrahydro-furan-3,4-diol Acetate] | >133 | 0.1 | 12.6
CC(=O)O.CCn1nnc([C@H]2O[C@@H](n3cnc4c(NCCC(C)(C)C)nc(NCCc5cn(C)cn5)nc43)[C@H](O)[C@@H]2O)n1 [Example 9, (2R,3R,4S,5R)-2-{6-(3,3-Dimethyl-butylamino)-2-[2-(1-methyl-1H-imidazol-4-yl)-ethylamino]-purin-9-yl}-5-(2-ethyl-2H-tetrazol-5-yl)-tetrahydro-furan-3,4-diol Acetate] | >42 | 0.45 | 377
CCn1nnc(C2OC(n3cnc4c(N)nc(NC5CCCC5O)nc43)C(O)C2O)n1 [Example 10, (2R,3R,4S,5R)-2-[6-Amino-2-(2R-hydroxy-cyclopent-1R-ylamino)-purin-9-yl]-5-(2-ethyl-2H-tetrazol-5-yl)-tetrahydro-furan-3,4-diol Hydrochloride] | 3.66 | 0.11 | 22.1
CCn1nnc([C@H]2O[C@@H](n3cnc4c(N)nc(NC5CCCC5)nc43)[C@H](O)[C@@H]2O)n1.O=C(O)C(F)(F)F.O=C(O)C(F)(F)F [Example 12] | >243 | 0.57 | 31.2
CCn1nnc([C@H]2O[C@@H](n3cnc4c(N)nc(Nc5ccc(F)cc5)nc43)[C@H](O)[C@@H]2O)n1.O=C(O)C(F)(F)F [Example 13, (2R,3R,4S,5R)-2-[6-Amino-2-(4-fluoro-phenylamino)-purin-9-yl]-5-(2-ethyl-2H-tetrazol-5-yl)-tetrahydro-furan-3,4-diol Trifluoroacetate] | >232 | 0.64 | 266.9
CCn1nnc([C@H]2O[C@@H](n3cnc4c(N)nc(NCCc5ccc(N)cc5)nc43)[C@H](O)[C@@H]2O)n1.O=CO [Example 14, (2R,3R,4S,5R)-2-{6-Amino-2-[2-(4-amino-phenyl)-ethylamino]-purin-9-yl}-5-(2-ethyl-2H-tetrazol-5-yl)-tetrahydro-furan-3,4-diol Formate] | >209 | 0.55 | 181.1
CCn1nnc([C@H]2O[C@@H](n3cnc4c(N)nc(NCCc5ccc(O)c(O)c5)nc43)[C@H](O)[C@@H]2O)n1.O=CO [Example 15, (2R,3R,4S,5R)-2-{6-Amino-2-[2-(3,4-dihydroxy-phenyl)-ethylamino]-purin-9-yl}-5-(2-ethyl-2H-tetrazol-5-yl)-tetrahydro-furan-3,4-diol Formate] | >209 | 0.55 | 139.5
CCn1nnc([C@H]2O[C@@H](n3cnc4c(N)nc(NCCc5ccc(O)cc5)nc43)[C@H](O)[C@@H]2O)n1.O=CO [Example 16, (2R,3R,4S,5R)-2-{6-Amino-2-[2-(4-hydroxy-phenyl)-ethylamino]-purin-9-yl}-5-(2-ethyl-2H-tetrazol-5-yl)-tetrahydro-furan-3,4-diol Formate] | >209 | 0.3 | 516.4
CCn1nnc(C2OC(n3cnc4c(N)nc(NCCc5ccc(S(N)(=O)=O)cc5)nc43)C(O)C2O)n1 (stereo not drawn) [Example 17, 4-(2-{6-Amino-9-[5R-(2-ethyl-2H-tetrazol-5-yl)-3R,4S-Dihydroxy-tetrahydro-furan-2R-yl]-9H-purin-2-ylamino}-ethyl)-benzenesulfonamide Formate] | >346 | 0.69 | 247.6
CCn1nnc([C@H]2O[C@@H](n3cnc4c(N)nc(NCCc5ccc(OC)cc5)nc43)[C@H](O)[C@@H]2O)n1.O=CO [Example 18, (2R,3R,4S,5R)-2-{6-Amino-2-[2-(4-methoxy-phenyl)-ethylamino]-purin-9-yl}-5-(2-ethyl-2H-tetrazol-5-yl)-tetrahydro-furan-3,4-diol Formate] | >223 | 0.36 | 136.7
CCn1nnc([C@H]2O[C@@H](n3cnc4c(N)nc(NC5CC6CCC5C6)nc43)[C@H](O)[C@@H]2O)n1.O=C(O)C(F)(F)F (stereo partly drawn) [Example 19, (2R,3R,4S,5R)-2-[6-Amino-2-(bicyclo[2.2.1]hept-2-ylamino)-purin-9-yl]-5-(2-ethyl-2H-tetrazol-5-yl)-tetrahydro-furan-3,4-diol Trifluoroacetate] | >382 | 0.21 | 85.6
